According to US4237140A, “Analgesic mixture of nalbuphine and acetaminophen” (E. I. Du Pont de Nemours and Company, priority 1979, dated 1980):
Structures can show the parent of a compound that is named as a salt.

Test system: phenyl-p-benzoquinone induced writhing in mice
Assay: mouse antiphenylquinone writhing test (oral analgesic activity)
Details: for ED50: Mus musculus, po, 5 min; for peak time for analgesia: preliminary experiment, drug alone
Description: Male CF1 mice obtained from Charles River Breeding Laboratories, fasted for 16-22 hours, and weighing 18-22 g at the time of testing are used throughout. All mice are dosed orally with acetaminophen and/or nalbuphine (calculated as the hydrochloride salt) dissolved completely in distilled water containing as vehicle 2% by volume of Tween 80®, a pharmacological dispersant manufactured by Fisher Scientific Company and containing 100% polysorbate 80. A dosing volume of 20 ml/kg is used. All doses are coded and the test is performed under a code not known to the observer.
Mice, intubated with various doses of nalbuphine HCl, acetaminophen, combined doses of nalbuphine.HCl and acetaminophen, or vehicle, are injected intraperitoneally with a challenge dose of phenyl-p-benzoquinone.The phenyl-p-benzoquinone is prepared as a 0.1 mg/ml solution in 5% by volume of ethanol in water; the writhing dose is 1.25 mg/kg injected at the rate of 0.25 ml/20 g. For scoring purposes a "writhe" is indicated by whole body stretching or contraction of the abdomen: mice are observed 10 minutes for the presence or absence of writhing beginning 5 minutes after receiving the phenyl-p-benzoquinone dose. Each mouse is used only once, then discarded.
Initially the time of peak activity is determined separately for each drug in the antiphenylquinone writhing test. Then several doses of each drug alone and in precise nalbuphine.HCl/acetaminophen ratios are given orally at or near the time of peak analgesic effects.
All ED50 values are determined numerically by the moving average method of Thompson (W. F. Thompson: Bacteriological Rev. 11, 115-145, 1947) and 95% confidence limits are calculated according to the method of Litchfield and Wilcoxon (J. T. Litchfield, Jr. and F. Wilcoxon: J. Pharm. Exp. Ther. 96, 99-113, 1949).

Oc1ccc2c3c1O[C@H]1[C@@H](O)CC[C@@]4(O)[C@@H](C2)N(CC2CCC2)CC[C@]314 [Nalbuphine . HCl, (-)-17-(cyclobutylmethyl)-4,5α-epoxymorphinan-3,6α, 14-triol]
ED50: 7.6 mg/kg
ED50 AT 5 MIN., Nalbuphine . HCl (Table 1, oral, nalbuphine.HCl component dose (alone or in combination), 95% confidence limits printed on adjacent line): 8.58 mg/kg
% MICE BLOCKED (oral, nalbuphine.HCl 1.9 mg/kg, acetaminophen 0): 10%
% MICE BLOCKED (oral, nalbuphine.HCl 3.8 mg/kg, acetaminophen 0): 23%
% MICE BLOCKED (oral, nalbuphine.HCl 7.6 mg/kg, acetaminophen 0): 50%
% MICE BLOCKED (oral, nalbuphine.HCl 15.2 mg/kg, acetaminophen 0): 63%
% MICE BLOCKED (oral, nalbuphine.HCl 30.4 mg/kg, acetaminophen 0): 90%
peak time for analgesia (oral): 5 min

CC(=O)Nc1ccc(O)cc1 [Acetaminophen, N-(4-hydroxyphenyl)acetamide]
ED50: 119 mg/kg
ED50 AT 5 MIN., Acetaminophen (Table 1, oral, acetaminophen component dose (alone or in combination), 95% confidence limits printed on adjacent line): 151 mg/kg
% MICE BLOCKED (oral, nalbuphine.HCl 0, acetaminophen 29.8 mg/kg): 20%
% MICE BLOCKED (oral, nalbuphine.HCl 0, acetaminophen 59.5 mg/kg): 23%
% MICE BLOCKED (oral, nalbuphine.HCl 0, acetaminophen 238 mg/kg): 55%
peak time for analgesia (oral): 5 min
